From ChEMBL document CHEMBL3808363, “2-(Thienothiazolylimino)-1,3-thiazolidin-4-ones inhibit cell division cycle 25 A phosphatase” (Bioorg Med Chem, 2016)
Active and inactive are the calls of the source. No cut-off for these calls is given here.

Experiments:
[1] = system: MCF7; test: Cytotoxicity against human MCF7 cells assessed as inhibition of cell growth at IC50 concentration after 72 hrs by trypan blue assay; type: functional
[2] = system: HT-29; test: Cytotoxicity against human HT-29 cells assessed as inhibition of cell growth after 72 hrs by MTT assay; type: functional, cell-based; conditions: HT-29, 72 h
[3] = system: MDA-MB-231; test: Cytotoxicity against human MDA-MB-231 cells assessed as inhibition of cell growth at IC50 concentration after 72 hrs by trypan blue assay; type: functional
[4] = target: T1, M-phase inducer phosphatase 1 (Homo sapiens) (UniProt P30304); test: Reversible binding affinity to human recombinant full length GST-tagged CDC25A transfected in Escherichia coli BL21-DE3 after 1 hr by MALDI-TOF mass spectrometry
T1 sequence (whole entry): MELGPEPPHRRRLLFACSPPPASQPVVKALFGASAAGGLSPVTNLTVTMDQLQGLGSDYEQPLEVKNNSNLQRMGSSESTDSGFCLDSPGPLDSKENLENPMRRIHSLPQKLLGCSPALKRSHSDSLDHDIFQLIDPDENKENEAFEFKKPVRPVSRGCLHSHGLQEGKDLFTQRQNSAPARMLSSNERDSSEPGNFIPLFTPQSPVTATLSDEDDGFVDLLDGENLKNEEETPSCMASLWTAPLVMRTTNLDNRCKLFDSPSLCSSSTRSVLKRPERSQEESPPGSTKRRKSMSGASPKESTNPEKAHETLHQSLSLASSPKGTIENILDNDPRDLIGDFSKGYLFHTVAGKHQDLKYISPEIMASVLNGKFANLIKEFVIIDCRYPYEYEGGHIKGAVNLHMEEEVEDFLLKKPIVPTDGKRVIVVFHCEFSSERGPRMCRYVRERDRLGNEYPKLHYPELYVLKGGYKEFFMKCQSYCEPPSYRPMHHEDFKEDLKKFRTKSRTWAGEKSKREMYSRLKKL

[5] = target: T2, M-phase inducer phosphatase 1 (Homo sapiens, UniProt P30304); test: Inhibition of human recombinant full length GST-tagged CDC25A transfected in Escherichia coli BL21-DE3 using 3-O-methylfluorescein phosphate as substrate incubated for 20 mins followed by substrate addition measured every 10 mins for 2 hrs by fluorimetric assay
T2 sequence (P30304 whole entry): T1 sequence (whole entry)

[6] = target: T3, M-phase inducer phosphatase 3 (Homo sapiens) (UniProt P30307); test: Inhibition of human recombinant full length GST-tagged CDC25C transfected in Escherichia coli BL21-DE3 using 3-O-methylfluorescein phosphate as substrate at 10 uM incubated for 20 mins followed by substrate addition measured every 10 mins for 2 hrs by fluorimetric assay
T3 sequence (whole entry): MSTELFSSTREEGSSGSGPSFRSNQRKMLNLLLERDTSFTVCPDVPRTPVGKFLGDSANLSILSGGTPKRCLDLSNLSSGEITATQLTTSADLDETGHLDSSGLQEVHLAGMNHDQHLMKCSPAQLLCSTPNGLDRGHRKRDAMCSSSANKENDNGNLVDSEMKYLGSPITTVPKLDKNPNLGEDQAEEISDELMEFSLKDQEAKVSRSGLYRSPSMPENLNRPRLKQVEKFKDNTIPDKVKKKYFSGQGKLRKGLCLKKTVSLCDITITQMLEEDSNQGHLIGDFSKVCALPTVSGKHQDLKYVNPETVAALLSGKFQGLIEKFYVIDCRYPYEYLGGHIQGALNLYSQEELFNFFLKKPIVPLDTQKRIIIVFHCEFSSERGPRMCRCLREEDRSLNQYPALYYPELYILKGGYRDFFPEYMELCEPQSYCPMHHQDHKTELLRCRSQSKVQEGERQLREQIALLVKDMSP

[7] = system: MCF7; test: Cytotoxicity against human MCF7 cells assessed as inhibition of cell growth after 72 hrs by MTT assay; type: functional, cell-based; conditions: MCF7, 72 h
[8] = target: T4, M-phase inducer phosphatase 2 (Homo sapiens) (UniProt P30305); test: Inhibition of human recombinant GST-tagged CDC25B catalytic domain transfected in Escherichia coli BL21-DE3 using 3-O-methylfluorescein phosphate as substrate at 10 uM incubated for 20 mins followed by substrate addition measured every 10 mins for 2 hrs by fluorimetric assay
T4 sequence (whole entry): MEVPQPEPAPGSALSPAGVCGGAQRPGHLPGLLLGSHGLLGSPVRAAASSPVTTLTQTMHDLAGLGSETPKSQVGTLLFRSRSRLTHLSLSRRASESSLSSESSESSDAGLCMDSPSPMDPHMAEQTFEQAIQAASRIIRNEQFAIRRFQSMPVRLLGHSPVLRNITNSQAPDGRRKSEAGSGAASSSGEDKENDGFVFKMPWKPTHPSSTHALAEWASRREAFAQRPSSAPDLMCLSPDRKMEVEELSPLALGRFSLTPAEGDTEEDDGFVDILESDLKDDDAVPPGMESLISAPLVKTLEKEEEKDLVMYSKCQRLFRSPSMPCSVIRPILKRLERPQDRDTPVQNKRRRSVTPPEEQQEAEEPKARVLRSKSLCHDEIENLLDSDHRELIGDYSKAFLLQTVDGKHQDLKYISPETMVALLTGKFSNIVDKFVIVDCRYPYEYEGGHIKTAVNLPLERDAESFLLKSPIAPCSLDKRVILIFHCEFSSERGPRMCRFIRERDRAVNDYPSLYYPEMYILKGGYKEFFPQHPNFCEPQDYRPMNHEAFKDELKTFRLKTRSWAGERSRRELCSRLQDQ

[9] = target: T1, M-phase inducer phosphatase 1 (Homo sapiens); test: (§1) Inhibition of human recombinant full length GST-tagged CDC25A transfected in Escherichia coli BL21-DE3 using 3-O-methylfluorescein phosphate as substrate at 10 uM incubated for 20 mins followed by substrate addition measured every 10 mins for 2 hrs by fluorimetric assay
[10] = system: MDA-MB-231; test: Cytotoxicity against human MDA-MB-231 cells assessed as inhibition of cell growth after 72 hrs by MTT assay; type: functional, cell-based; conditions: MDA-MB-231, 72 h
[11] = target: T1, M-phase inducer phosphatase 1 (Homo sapiens); test: as §1, with “assay in presence of 0.025% triton X 100” for “assay”
[12] = target: T1, M-phase inducer phosphatase 1 (Homo sapiens); test: as §1, with “assay in presence of 0.5% triton X 100” for “assay”
[13] = target: T1, M-phase inducer phosphatase 1 (Homo sapiens); test: as §1, with “assay in presence of 0.1% triton X 100” for “assay”
[14] = target: T1, M-phase inducer phosphatase 1 (Homo sapiens); test: as §1, with “assay in presence of 0.01% triton X 100” for “assay”
[15] = target: T1, M-phase inducer phosphatase 1 (Homo sapiens); test: Inhibition of human recombinant full length GST-tagged CDC25A transfected in Escherichia coli BL21-DE3 using 3-O-methylfluorescein phosphate as substrate at 10 uM incubated for 20 mins followed by substrate addition measured every 10 mins for 2 hrs by fluorimetric assay in presence of 0.1% BSA
[16] = target: T1, M-phase inducer phosphatase 1 (Homo sapiens); test: as §1, with “assay in presence of 0.05% triton X 100” for “assay”
[17] = Cytotoxicity against human HCT116 cells assessed as inhibition of cell growth after 72 hrs by MTT assay; type: functional, cell-based; conditions: HCT-116, 72 h
[18] = system: MDA-MB-231; test: Cytotoxicity against human MDA-MB-231 cells assessed as cell growth at IC50 concentration after 72 hrs by trypan blue assay; type: functional
[19] = system: MCF7; test: Cytotoxicity against human MCF7 cells assessed as cell growth at IC50 concentration after 72 hrs by trypan blue assay; type: functional

Structure (SMILES)	growth inhibition (GI) [1]	IC50 [2]	growth inhibition (GI) [3]	Activity [4]	IC50 [5]	inhibition [6]	IC50 [7]	inhibition [8]	inhibition [9]	IC50 [10]	inhibition [11]	inhibition [12]	inhibition [13]	inhibition [14]	inhibition [15]	inhibition [16]	IC50 [17]	Activity [18]	Activity [19]
Cc1ccc(/C=C2/S/C(=N\c3nc4cc(-c5ccc(Cl)cc5)sc4s3)NC2=O)cc1	inactive	45.5 µM	70%	Active	8.3 µM	23.3%	3.3 µM	24.2%	68.1%	22.8 µM	–	–	–	–	–	–	–	–	–
O=C1N/C(=N/c2nc3cc(-c4ccc(Cl)cc4)sc3s2)S/C1=C/c1ccc(F)cc1	60%	> 50 µM	30%	Active	7.8 µM	15.5%	21 µM	35.4%	65.6%	24.7 µM	–	–	–	–	–	–	–	–	–
O=C1C=CC(=O)c2ccccc21	–	–	–	–	–	99.2%	–	71.2%	79.7%	–	18.6%	26.3%	24.7%	20.6%	20.3%	26.5%	–	–	–
O=C1N/C(=N/c2nc3cc(-c4ccc(Br)cc4)sc3s2)S/C1=C/c1ccc(Cl)cc1	25%	15.2 µM	35%	–	–	6.1%	11 µM	3.8%	28.4%	22.3 µM	–	–	–	–	–	–	15.5 µM	–	–
O=C1CS/C(=N\c2nc3cc(-c4ccc(Cl)cc4)[se]c3s2)N1	–	42.4 µM	–	–	–	15.6%	21.8 µM	17.4%	4.2%	35.6 µM	–	–	–	–	–	–	43.8 µM	–	–
O=C1CS/C(=N\c2nc3cc(-c4ccc(Cl)cc4)sc3s2)N1	–	13.6 µM	–	–	–	16.4%	12.4 µM	21.6%	6.8%	18.8 µM	–	–	–	–	–	–	14.5 µM	–	–
O=C1N/C(=N/c2nc3cc(-c4ccc(Cl)cc4)sc3s2)S/C1=C/c1ccc2ccccc2c1	–	> 50 µM	–	Active	7.3 µM	22.6%	15.2 µM	27.3%	67%	> 50 µM	–	–	–	–	–	–	–	>80%	>80%
CN(C)c1ccc(/C=C2/S/C(=N\c3nc4cc(-c5ccc(Cl)cc5)sc4s3)NC2=O)cc1	–	> 50 µM	–	–	–	–	> 50 µM	–	–	–	–	–	–	–	–	–	–	–	–
O=C1N/C(=N/c2nc3cc(-c4ccc(Cl)cc4)sc3s2)S/C1=C/c1ccc(Cl)cc1	–	> 50 µM	–	–	–	–	> 50 µM	–	–	–	–	–	–	–	–	–	–	–	–
